According to patent US10485800B2, “Mixed lineage kinase inhibitors for HIV/AIDS therapies” (UNIVERSITY OF ROCHESTER, priority 2012, dated 2019):

molecular target: MLK3 (Homo sapiens (Human), UniProt Q16584); assay: Radiometric filter plate MLK3 assay; format: biochemical; details: 2 μM cold ATP (Km), 1 μM inactive MKK7b, twenty minute incubation; read-out: MK3 IC50
Description: After a twenty minute incubation, the reactions were washed through filter plates and read on a scintillation counter. Results are shown in Table 9 below, in which +++ indicates ≤0.1 μM, ++ indicates >0.1 μM and ≤1 μM, and + indicates >1 μM.

Sequence of MLK3 (Q16584 whole entry): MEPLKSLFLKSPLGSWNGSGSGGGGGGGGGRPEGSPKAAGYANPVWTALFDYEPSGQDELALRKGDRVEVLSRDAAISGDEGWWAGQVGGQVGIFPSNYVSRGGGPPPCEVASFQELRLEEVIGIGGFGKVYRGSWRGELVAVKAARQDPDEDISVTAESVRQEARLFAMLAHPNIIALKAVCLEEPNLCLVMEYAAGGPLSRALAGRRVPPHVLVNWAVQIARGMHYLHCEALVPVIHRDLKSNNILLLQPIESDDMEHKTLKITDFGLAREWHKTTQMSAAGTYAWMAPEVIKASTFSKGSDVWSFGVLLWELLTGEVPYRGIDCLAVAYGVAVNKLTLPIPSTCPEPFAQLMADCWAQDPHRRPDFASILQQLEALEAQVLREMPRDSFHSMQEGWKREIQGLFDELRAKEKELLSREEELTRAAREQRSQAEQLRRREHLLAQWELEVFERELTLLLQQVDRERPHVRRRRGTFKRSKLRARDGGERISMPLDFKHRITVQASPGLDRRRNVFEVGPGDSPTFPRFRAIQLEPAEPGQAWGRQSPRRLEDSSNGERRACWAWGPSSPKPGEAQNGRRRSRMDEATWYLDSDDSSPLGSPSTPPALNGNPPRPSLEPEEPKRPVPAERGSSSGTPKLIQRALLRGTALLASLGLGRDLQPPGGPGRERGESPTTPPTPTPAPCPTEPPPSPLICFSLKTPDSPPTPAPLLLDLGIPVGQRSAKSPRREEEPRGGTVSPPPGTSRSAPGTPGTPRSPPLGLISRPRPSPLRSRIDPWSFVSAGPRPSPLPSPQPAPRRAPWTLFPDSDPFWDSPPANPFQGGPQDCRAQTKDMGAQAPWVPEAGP

Question: `CN1CCN(Cc2ccc(-c3cnc4[nH]cc(-c5ccc6ncccc6c5)c4c3)cc2)CC1` [Example 180] was tested. Which IC50 did it give?
Answer: < 100 nM

Question: `O=c1[nH]c2ncc(-c3ccncc3)nc2n1-c1ccc2scnc2c1` [Example 98, 1-(benzo[d]thiazol-5-yl)-6-(pyridin-4-yl)-1H-imidazo[4,5-b]pyrazin-2(3H)-one] was tested. Which IC50 did it give?
Answer: > 1000 nM

Question: `Nc1ccc(-c2cnc3[nH]c(=O)n(C4CCCC4)c3n2)cn1` [Example 117, 6-(6-aminopyridin-3-yl)-1-cyclopentyl-1H-imidazo[4,5-b]pyrazin-2(3H)-one] was tested. Which IC50 did it give?
Answer: > 1000 nM

Question: For `CS(=O)(=O)Nc1ccc(-c2cnc3[nH]cc(-c4ccc5[nH]ccc5c4)c3c2)cc1` [Example 11, N-(4-(3-(1H-indol-5-yl)-1H-pyrrolo[2,3-b]pyridin-5-yl)phenyl)methanesulfonamide], which IC50 is on record?
Answer: < 100 nM

Question: With `O=c1[nH]c2ncc(-c3ccncc3)nc2n1C1CCCC1` [Example 77, 1-cyclopentyl-6-(pyridin-4-yl)-1H-imidazo[4,5-b]pyrazin-2(3H)-one] as the molecule, how does the IC50 read?
Answer: > 1000 nM

Question: Which IC50 does the source give for `COc1ccc(-c2cnc3[nH]c(=O)n(-c4ccc5[nH]ccc5c4)c3n2)cc1F` [Example 49, 6-(3-fluoro-4-methoxyphenyl)-1-(1H-indol-5-yl)-1H-imidazo[4,5-b]pyrazin-2(3H)-one] here?
Answer: > 1000 nM

Question: With `COc1cc(-c2nc3c(nc2Cl)[nH]c(=O)n3CC2CC2)cc(OC)c1OC` [Example 119, 5-chloro-1-(cyclopropylmethyl)-6-(3,4,5-trimethoxyphenyl)-1H-imidazo[4,5-b]pyrazin-2(3H)-one] as the molecule, how does the IC50 read?
Answer: > 1000 nM

Question: With `COc1cc(-c2cnc3[nH]cc(-c4ccc5[nH]ccc5c4)c3n2)ccc1OCCN1CCOCC1` [Example 39, 4-(2-(4-(7-(1H-indol-5-yl)-5H-pyrrolo[3,2-b]pyrazin-2-yl)-2-methoxyphenoxy)ethyl)morpholine] as the molecule, how does the IC50 read?
Answer: < 100 nM

Question: With `COc1cc(-c2cnc3c(c2)C(Cc2ccccc2)C(=O)N3)cc(OC)c1OC` (centres unmarked) [Example 137, 3-benzyl-5-(3,4,5-trimethoxy-phenyl)-1,3-dihydro-pyrrolo[2,3-b]pyridin-2-one] as the molecule, how does the IC50 read?
Answer: > 1000 nM

Question: With `COc1cc(-c2cnc3[nH]cc(-c4ccc(CNC(C)=O)cc4)c3c2)cc(OC)c1OC` [Example 159, N-{4-[5-(3,4,5-Trimethoxy-phenyl)-1H-pyrrolo[2,3-b]pyridin-3-yl]-benzyl}-acetamide] as the molecule, how does the IC50 read?
Answer: < 100 nM

Question: How did the IC50 turn out when `O=c1[nH]c2ncc(-c3ccncc3)nc2n1-c1ccc2[nH]ccc2c1` [Example 44, 1-(1H-indol-5-yl)-6-(pyridin-4-yl)-1H-imidazo[4,5-b]pyrazin-2(3H)-one] was run?
Answer: > 1000 nM

Question: How did the IC50 turn out when `COc1cc(-c2cnc3c(c2)C(=Cc2ccc(C#N)cc2)C(=O)N3)cc(OC)c1OC` [Example 133, 4-[2-oxo-5-(3,4,5-trimethoxy-phenyl)-1,2-dihydro-pyrrolo[2,3-b]pyridin-3-ylidenemethyl]-benzonitrile] was run?
Answer: > 1000 nM

Question: `COc1cc(-c2cnc3c(c2)C(Cc2ccc(C(N)=O)cc2)C(=O)N3)cc(OC)c1OC` (centres unmarked) [Example 138, 4-[2-oxo-5-(3,4,5-trimethoxy-phenyl)-2,3-dihydro-1H-pyrrolo[2,3-b]pyridin-3-ylmethyl]-benzamide] was tested. Which IC50 did it give?
Answer: > 1000 nM

Question: How did the IC50 turn out when `COc1cc(-c2cnc3[nH]c(=O)n(-c4ccc5[nH]cnc5c4)c3n2)cc(OC)c1OC` [Example 102, 1-(1H-benzo[d]imidazol-5-yl)-6-(3,4,5-trimethoxyphenyl)-1H-imidazo[4,5-b]pyrazin-2(3H)-one] was run?
Answer: < 100 nM

Question: With `Cc1cc(C)cc(-c2cnc3[nH]c(=O)n(-c4ccc5scnc5c4)c3n2)c1` [Example 99, 1-(benzo[d]thiazol-5-yl)-6-(3,5-dimethylphenyl)-1H-imidazo[4,5-b]pyrazin-2(3H)-one] as the molecule, how does the IC50 read?
Answer: > 1000 nM

Question: How did the IC50 turn out when `CN1CCN(Cc2ccc(-c3cnc4[nH]cc(-c5ccc(C(N)=O)cc5)c4c3)cc2)CC1=O` [Example 158, 4-{5-[4-(4-methyl-3-oxo-piperazin-1-ylmethyl)-phenyl]-1H-pyrrolo[2,3-b]pyridin-3-yl}-benzamide] was run?
Answer: < 100 nM

Question: For `O=c1[nH]c2ncc(-c3ccc4cc[nH]c4c3)nc2n1-c1ccc2[nH]ccc2c1` [Example 56, 1-(1H-indol-5-yl)-6-(1H-indol-6-yl)-1H-imidazo[4,5-b]pyrazin-2(3H)-one], which IC50 is on record?
Answer: > 1000 nM

Question: With `COc1cc(-c2cnc3c(c2)C(=Cc2cccc(C(N)=O)c2)C(=O)N3)cc(OC)c1OC` [Example 132, 3-[2-oxo-5-(3,4,5-trimethoxy-phenyl)-1,2-dihydro-pyrrolo[2,3-b]pyridin-3-ylidenemethyl]-benzamide] as the molecule, how does the IC50 read?
Answer: > 1000 nM

Question: With `Nc1ccc(-c2cnc3[nH]cc(-c4ccc(F)c(Cl)c4)c3c2)cn1` [Example 29, 5-(3-(3-chloro-4-fluorophenyl)-1H-pyrrolo[2,3-b]pyridin-5-yl)pyridin-2-amine] as the molecule, how does the IC50 read?
Answer: > 1000 nM

Question: Which IC50 does the source give for `COc1cc(-c2cnc3[nH]c(=O)n(-c4ccc5[nH]ccc5c4)c3n2)cc(OC)c1O` [Example 62, 6-(4-hydroxy-3,5-dimethoxyphenyl)-1-(1H-indol-5-yl)-1H-imidazo[4,5-b]pyrazin-2(3H)-one] here?
Answer: < 100 nM

Question: For `COc1cc(-c2cnc3ncn(-c4ccc5[nH]ccc5c4)c3n2)cc(OC)c1OC` [Example 126, 1-(1H-indol-5-yl)-6-(3,4,5-trimethoxyphenyl)-1H-imidazo[4,5-b]pyrazine], which IC50 is on record?
Answer: > 1000 nM

Question: `COc1cc(-c2cnc3[nH]c(=O)n(C4CCCC4)c3n2)cc(OC)c1OC` [Example 74, 1-cyclopentyl-6-(3,4,5-trimethoxyphenyl)-1H-imidazo[4,5-b]pyrazin-2(3H)-one] was tested. Which IC50 did it give?
Answer: < 100 nM

Question: Which IC50 does the source give for `Nc1ccc(-c2cnc3[nH]cc(-c4ccc5[nH]ccc5c4)c3c2)cc1` [Example 8, 4-(3-(1H-indol-5-yl)-1H-pyrrolo[2,3-b]pyridin-5-yl)aniline] here?
Answer: < 100 nM

Question: With `CC(C)C(=O)N1CCN(Cc2ccc(-c3cnc4[nH]cc(-c5ccc6[nH]ccc6c5)c4c3)cc2)CC1` [Example 196] as the molecule, how does the IC50 read?
Answer: < 100 nM

Question: With `Nc1ncc(-c2cnc3[nH]cc(-c4cnc(N)nc4)c3c2)cn1` [Example 20, 5,5′-(1H-pyrrolo[2,3-b]pyridine-3,5-diyl)dipyrimidin-2-amine] as the molecule, how does the IC50 read?
Answer: > 1000 nM

Question: `c1cc2cc(-c3c[nH]c4ncc(-c5ccc(CN6CCOCC6)cc5)cc34)ccc2[nH]1` [Example 184, 4-(4-(3-(1H-indol-5-yl)-1H-pyrrolo[2,3-b]pyridin-5-yl)benzyl)morpholine] was tested. Which IC50 did it give?
Answer: < 100 nM

Question: `CC1CN(Cc2ccc(-c3cnc4[nH]cc(-c5ccc6[nH]ccc6c5)c4c3)cc2)CCN1C` (centres unmarked) [Example 189, 5-(4-((3,4-dimethylpiperazin-1-yl)methyl)phenyl)-3-(1H-indol-5-yl)-1H-pyrrolo[2,3-b]pyridine] was tested. Which IC50 did it give?
Answer: < 100 nM

Question: How did the IC50 turn out when `O=c1[nH]c2ncc(-c3ccc(O)cc3)nc2n1-c1ccc2cn[nH]c2c1` [Example 92, 6-(4-hydroxyphenyl)-1-(1H-indazol-6-yl)-1H-imidazo[4,5-b]pyrazin-2(3H)-one] was run?
Answer: > 1000 nM

Question: `CN1CCN(Cc2ccc(-c3cnc4[nH]cc(-c5ccc6nccc(O)c6c5)c4c3)cc2)CC1` [Example 177] was tested. Which IC50 did it give?
Answer: < 100 nM

Question: Which IC50 does the source give for `CN1CCN(Cc2ccc(-c3cnc4[nH]cc(-c5ccc(C(F)(F)F)cc5)c4c3)cc2)CC1` [Example 170] here?
Answer: > 1000 nM

Question: Which IC50 does the source give for `CNC(=O)c1ccc(-c2c[nH]c3ncc(-c4ccc(CN5CCN(C)CC5)cc4)cc23)cc1` [Example 165, N-methyl-4-{5-[4-(4-methyl-piperazin-1-ylmethyl)-phenyl]-1H-pyrrolo[2,3-b]pyridin-3-yl}-benzamide] here?
Answer: < 100 nM

Question: `CC(C)(C)CC(=O)N1CCN(Cc2ccc(-c3cnc4[nH]cc(-c5ccc6[nH]ccc6c5)c4c3)cc2)CC1` [Example 192] was tested. Which IC50 did it give?
Answer: < 100 nM

Question: Which IC50 does the source give for `CC(=O)N1CCN(C(=O)c2ccc(-c3cnc4[nH]cc(-c5ccc6[nH]ccc6c5)c4c3)cc2)CC1` [Example 146, 1-(4-{4-[3-(1H-indol-5-yl)-1H-pyrrolo[2,3-b]pyridin-5-yl]-benzoyl}-piperazin-1-yl)-ethanone] here?
Answer: < 100 nM

Question: Which IC50 does the source give for `COc1cc(-c2cnc3[nH]c(=O)n(-c4ccc5[nH]c(C)cc5c4)c3n2)cc(OC)c1OC` [Example 72, 1-(2-methyl-1H-indol-5-yl)-6-(3,4,5-trimethoxyphenyl)-1H-imidazo[4,5-b]pyrazin-2(3H)-one] here?
Answer: < 100 nM

Question: Which IC50 does the source give for `Cc1cc(C)cc(-c2cnc3[nH]c(=O)n(-c4ccc5cn[nH]c5c4)c3n2)c1` [Example 95, 6-(3,5-dimethylphenyl)-1-(1H-indazol-6-yl)-1H-imidazo[4,5-b]pyrazin-2(3H)-one] here?
Answer: > 1000 nM

Question: Which IC50 does the source give for `O=c1[nH]c2ncc(-c3cc(Cl)cc(Cl)c3)nc2n1-c1ccc2[nH]ccc2c1` [Example 48, 6-(3,5-dichlorophenyl)-1-(1H-indol-5-yl)-1H-imidazo[4,5-b]pyrazin-2(3H)-one] here?
Answer: > 1000 nM

Question: For `COc1cc(-c2cnc3[nH]cc(-c4ccc5[nH]ccc5c4)c3c2)ccc1N` [Example 5, 4-(3-(1H-indol-5-yl)-1H-pyrrolo[2,3-b]pyridin-5-yl)-2-methoxyaniline], which IC50 is on record?
Answer: < 100 nM

Question: `Cc1cc2cc(-n3c(=O)[nH]c4ncc(-c5ccncc5)nc43)ccc2[nH]1` [Example 85, 1-(2-methyl-1H-indol-5-yl)-6-(pyridin-4-yl)-1H-imidazo[4,5-b]pyrazin-2(3H)-one] was tested. Which IC50 did it give?
Answer: > 1000 nM

same assay, conditions: read-out: MK3 IC50

Question: Which IC50 does the source give for `CN1CCN(Cc2ccc(-c3cnc4[nH]cc(-c5ccc6[nH]ncc6c5)c4c3)cc2)CC1` [Example 173] here?
Answer: 100 to 1000 nM

Question: Which IC50 does the source give for `FC1(F)CCN(Cc2ccc(-c3cnc4[nH]cc(-c5ccc6[nH]ccc6c5)c4c3)cc2)CC1` [Example 185, 5-(4-((4,4-difluoropiperidin-1-yl)methyl)phenyl)-3-(1H-indol-5-yl)-1H-pyrrolo[2,3-b]pyridine] here?
Answer: 100 to 1000 nM

Question: Which IC50 does the source give for `CNC(=O)c1ccc(-c2c[nH]c3ncc(-c4cc(OC)c(OC)c(OC)c4)cc23)cc1` [Example 164, N-methyl-4-[5-(3,4,5-trimethoxy-phenyl)-1H-pyrrolo[2,3-b]pyridin-3-yl]-benzamide] here?
Answer: > 1000 nM

Question: For `CN1CCN(Cc2ccc(-c3cnc4[nH]cc(-c5ccc6c(O)ccnc6c5)c4c3)cc2)CC1` [Example 178], which IC50 is on record?
Answer: 100 to 1000 nM

Question: With `Cc1cc2cc(-c3c[nH]c4ncc(-c5ccc(CN6CCN(C)CC6)cc5)cc34)ccc2[nH]1` [Example 172] as the molecule, how does the IC50 read?
Answer: 100 to 1000 nM

Question: Which IC50 does the source give for `COc1cc(-c2cnc3[nH]c(=O)n(C4CCCC4)c3n2)ccc1N` [Example 118, 6-(4-amino-3-methoxyphenyl)-1-cyclopentyl-1H-imidazo[4,5-b]pyrazin-2(3H)-one] here?
Answer: 100 to 1000 nM
